This note sets out measurements from ChEMBL document CHEMBL3228022, “Synthesis of 2,3,4,4a,5,9b-hexahydro-1H-pyrido[4,3-b]indole derivatives and their central nervous system activities” (1979).

Calls of active or inactive are those of the source. No cut-off for these calls is given here. Bounds are passed on as bounds.

Assay [1] relates to Rattus norvegicus. In words: Neuroleptic activity in sc dosed Wistar HLA rat assessed as inhibition of apomorphine-induced gnawing administered 1 hr before apomorphine challenge measured 5 to 20 mins. In kind it is functional.
Assay [2] deals with Mus musculus. In words: Neuroleptic activity in STD-ddy mouse assessed as catalepsy at 100 mg/kg, po measured up to 30 secs. In kind it is functional, organism-based. On the set-up: dose 100 mg/kg.
The test system of assay [3] is Mus musculus. Briefly: Neuroleptic activity in po dosed STD-ddy mouse assessed as inhibition of active avoidance. In kind it is functional.
For assay [4], the system named is Mus musculus. In words: Neuroleptic activity in po dosed STD-ddy mouse assessed as inhibition of locomotion measured for 3 mins. Type of assay: functional. The conditions noted are these: 0.05 h.
The subject of assay [5] is Mus musculus. Briefly: Neuroleptic activity in po dosed STD-ddy mouse assessed as inhibition of methamphetamine-induced stereotyped behavior administered 100 mins before methamphetamine challenge measured for 20 mins. In kind it is functional.
Assay [6] deals with Rattus norvegicus. Briefly: Neuroleptic activity in Wistar HLA rat assessed as stimulation of methamphetamine-induced stereotyped behavior at 2 mg/kg, ip administered 20 mins before methamphetamine challenge measured every 30 mins for 3 hrs followed by every 1 hr for further 3 hrs. In kind it is functional. The following applies: route intraperitoneal.
The subject of assay [7] is Rattus norvegicus. Briefly: Neuroleptic activity in Wistar HLA rat assessed as stimulation of methamphetamine-induced stereotyped behavior at 5 mg/kg, ip administered 20 mins before methamphetamine challenge measured every 30 mins for 3 hrs followed by every 1 hr for further 3 hrs. In kind it is functional. The conditions noted are these: route intraperitoneal.
Assay [8] relates to Rattus norvegicus. In words: Neuroleptic activity in Wistar HLA rat assessed as inhibition of methamphetamine-induced stereotyped behavior at 1 mg/kg, ip administered 20 mins before methamphetamine challenge measured every 30 mins for 3 hrs followed by every 1 hr for further 3 hrs. On the set-up: Activity: scale not given: the % may be the effect or the level left. Type of assay: functional. The conditions noted are these: route intraperitoneal.

In assay [9] the test system is Rattus norvegicus. Briefly: Neuroleptic activity in Wistar HLA rat assessed as stimulation of methamphetamine-induced stereotyped behavior at 10 mg/kg, ip administered 20 mins before methamphetamine challenge measured every 30 mins for 3 hrs followed by every 1 hr for further 3 hrs. In kind it is functional. The conditions noted are these: route intraperitoneal.
Assay [10] relates to Mus musculus. In words: Neuroleptic activity in STD-ddy mouse assessed as muscle relaxation at 100 mg/kg, po after 20 mins. In kind it is functional, organism-based. On the set-up: dose 100 mg/kg.
The test system of assay [11] is Mus musculus. In words: Neuroleptic activity in STD-ddy mouse assessed as inhibition of locomotion at 10 mg/kg, po measured for 3 mins. Type of assay: functional. The conditions noted are these: 0.05 h.
For assay [12], the system named is Mus musculus. Briefly: Neuroleptic activity in po dosed STD-ddy mouse assessed as catalepsy measured up to 30 secs. In kind it is functional.
The subject of assay [13] is Mus musculus. In words: Neuroleptic activity in STD-ddy mouse assessed as inhibition of locomotion at 100 mg/kg, po measured for 3 mins. Type of assay: functional. The conditions noted are these: 0.05 h.
Assay [14] deals with Rattus norvegicus. In words: Neuroleptic activity in Wistar HLA rat assessed as inhibition of methamphetamine-induced stereotyped behavior at 5 mg/kg, ip administered 20 mins before methamphetamine challenge measured every 30 mins for 3 hrs followed by every 1 hr for further 3 hrs. In kind it is functional. On the set-up: Activity: scale not given: the % may be the effect or the level left. The conditions noted are these: route intraperitoneal.

Assay [15] deals with Rattus norvegicus. Briefly: Neuroleptic activity in ip dosed Wistar HLA rat assessed as inhibition of intracranial self-stimulation measured for 1 to 24 hrs. In kind it is functional.
Assay [16] has as its system Rattus norvegicus. Briefly: Neuroleptic activity in Wistar HLA rat assessed as inhibition of methamphetamine-induced stereotyped behavior at 10 mg/kg, ip administered 20 mins before methamphetamine challenge measured every 30 mins for 3 hrs followed by every 1 hr for further 3 hrs. In kind it is functional. The conditions noted are these: Rattus norvegicus, Wistar HLA, ip, route intraperitoneal.

In assay [17] the test system is Rattus norvegicus. In words: Neuroleptic activity in Wistar HLA rat assessed as inhibition of methamphetamine-induced stereotyped behavior at 2 mg/kg, ip administered 20 mins before methamphetamine challenge measured every 30 mins for 3 hrs followed by every 1 hr for further 3 hrs. Type of assay: functional. On the set-up: Activity: scale not given: the % may be the effect or the level left. The conditions noted are these: route intraperitoneal.

The test system of assay [18] is Rattus norvegicus. Briefly: Neuroleptic activity in po dosed Wistar HLA rat assessed as inhibition of intracranial self-stimulation measured for 1 to 24 hrs. Type of assay: functional.
Assay [19] relates to Rattus norvegicus. In words: Neuroleptic activity in Wistar HLA rat assessed as inhibition of methamphetamine-induced stereotyped behavior at 0.1 mg/kg, ip administered 20 mins before methamphetamine challenge measured every 30 mins for 3 hrs followed by every 1 hr for further 3 hrs. In kind it is functional. Also on record: scale not given: the % may be the effect or the level left. The following applies: route intraperitoneal.

In assay [20] the test system is Rattus norvegicus. Briefly: Neuroleptic activity in Wistar HLA rat assessed as inhibition of methamphetamine-induced stereotyped behavior at 0.2 mg/kg, ip administered 20 mins before methamphetamine challenge measured every 30 mins for 3 hrs followed by every 1 hr for further 3 hrs. The following applies: route intraperitoneal. On the set-up: scale not given: the % may be the effect or the level left. Type of assay: functional.

Assay [21] relates to Rattus norvegicus. Briefly: Neuroleptic activity in Wistar HLA rat assessed as inhibition of methamphetamine-induced stereotyped behavior at 0.5 mg/kg, ip administered 20 mins before methamphetamine challenge measured every 30 mins for 3 hrs followed by every 1 hr for further 3 hrs. In kind it is functional. Also on record: scale not given: the % may be the effect or the level left. The conditions noted are these: route intraperitoneal.

One may read the ED50 as the midpoint of the dose-response relation. Broadly, the inhibition in vivo is how much of the control response was suppressed. In the case of `Cc1ccc2c(c1)[C@H]1CN(CCCC(=O)c3ccc(F)cc3)CC[C@H]1N2.Cl` (relative stereo), the ED50 in assay [1] was 16.5 mg/kg; in assay [3], 10 mg/kg; in assay [4], 9.3 mg/kg; in assay [5] it was 23.8 mg/kg; in assay [12], 15.3 mg/kg. The outcome in assay [2] and in assay [10] was Active. Moreover, the Activity was 50% in assay [6], over 75% in [7], 0% in [8] and 50% in [9]. In addition, in assay [11], the inhibition in vivo at 10 mg/kg came to 75.9%. For the same compound, the inhibition in vivo at 100 mg/kg in [13] was 97.8%.
Take `CN(C)CCCN1c2ccccc2Sc2ccc(Cl)cc21` [CHLORPROMAZINE]: the ED50 worked out at 3.25 mg/kg in [1]; 5.59 mg/kg in assay [3]; 7.42 mg/kg in [4]; 13.3 mg/kg in [5]; 2.1 mg/kg in assay [15]; 9.97 mg/kg in assay [12]. Moreover, the outcome in assay [2] and in assay [10] was Active. Also, the Activity in assay [14] came out at 50%; in assay [17], 0%. In addition, the results for the inhibition in vivo at 10 mg/kg in assay [11] and in [16] were 67.6% and over 75%, respectively. The inhibition in vivo at 100 mg/kg in assay [13] was 97.4%.
Take `Cc1ccc2c(c1)[C@H]1CN(C)CC[C@H]1N2` (relative stereo) [STOBADINE]: the ED50 in assay [1] was over 100 mg/kg; in [4], 150 mg/kg; in [5], over 100 mg/kg; in assay [12], over 150 mg/kg; in assay [18], over 100 mg/kg. The result in [2] and in assay [10] was inactive. In addition, the Activity is given as 25% in [6], 50% in assay [7], 0% in [8] and over 75% in [9]. Also, the inhibition in vivo at 100 mg/kg in [13] was found to be 37.6%.
As to `O=C(CCCN1CCC(O)(c2ccc(Cl)cc2)CC1)c1ccc(F)cc1` [HALOPERIDOL], the Activity was 0% in [19], 25% in assay [20] and over 75% in [21]. Further, the inhibition in vivo at 1 mg/kg in [8] (Rattus norvegicus, Wistar HLA, ip) was over 75%.
`Cc1ccc2c(c1)[C@H]1CN(CCCC(=O)c3ccc(F)cc3)CC[C@H]1N2C.Cl` (relative stereo): in assay [2], the outcome was Active. Also, the ED50 stood at 20.1 mg/kg in assay [3], 10.2 mg/kg in assay [4], 40.3 mg/kg in assay [12] and 30 mg/kg in assay [18]. For the same compound, the Activity is 50% in [7], 0% in [8], 50% in [9] and 0% in assay [17]. In addition, the inhibition in vivo at 10 mg/kg in assay [11] came out at 55.8%. Further, in assay [13], the inhibition in vivo at 100 mg/kg turned out to be 95.8%.
For the compound `CCc1ccc2c(c1)[C@H]1CN(CCCC(=O)c3ccc(F)cc3)CC[C@H]1N2.Cl` (relative stereo), the outcome in assay [2] and in assay [10] was inactive. In addition, the Activity in assay [6] is 25%; in assay [7] it was over 75%; in assay [9] it was over 75%. For the same compound, the inhibition in vivo at 100 mg/kg in assay [13] amounted to 44%.
